Here are results for three compounds from patent publication US7122668B2, “Platinum complexes and their use in therapy” (priority 2002, dated 2006).

The conditions of data set [1]: cited from earlier work.
Data set [2] deals with plasmid pS16-hGH DNA. The data set can be described thus: Determination of Pt-DNA adducts by EtBr fluorescence. Format: binding. As to conditions: DNA modified 24 hr. The method, then: A plasmid (4.8 kbp) containing a gene coding for human growth hormone, plasmid pS16-hGH, was prepared as previously described^(23). The freshly prepared DNA was analyzed by agarose gel (1%) electrophoresis using post-staining with SYBR Green I fluorescent dye (Molecular Probes, Eugene, Oreg.). […] The ratio of absorbance at 260 nm to that at 280 nm was always between 1.8 and 1.9.
DNA were modified by the platinum complexes in 10 mM NaClO4 (pH 7.0) at 37° C. in the dark for 24 hr. Measurements of EtBr fluorescence were performed on an LS50B luminescence spectrometer (Perkin Elmer, Norwalk, Conn.). Fluorescence measurements of DNA modified by platinum in the presence of EtBr were performed using the excitation wavelength of 546 nm (slit 10 run) and emission wavelength of 590 nm (slit 10 nm) at 25° C. The concentrations were 0.01 mg/ml for DNA and 0.04 mg/ml for EtBr, which corresponded to the saturation of all intercalation sites of EtBr in DNA.
EtBr, as the fluorescent probe, was used to distinguish between perturbations induced in DNA by adducts of platinum (II) compounds^(14). Binding of EtBr by intercalation is blocked in a stoichiometric manner by formation of the bifunctional adducts, as of Cis-Pt, which results in a loss of fluorescence intensity. On the other hand, formation of monofunctional adducts results only in a slight decrease of EtBr fluorescence.

A short description of data set [3]: In vivo toxicity. Set-up: species or system BALB/C mice. The settings on record: 5 mg/kg, i.v., three times at weekly intervals.
The subject of data set [4] is C-26 colon carcinoma. Nature of the data set: In vivo antitumor efficacy. The settings on record: 5 mg/kg, three injections at weekly intervals from day 3 after i.p. tumor inoculation. Set-up: species or system BALB/C mice. The method, then:
Female BALB/C mice (in the weight range of 17–20 g) were injected i.p. with 1*10^6 C-26 colon carcinomas.
Treatment began at day 3 after tumor inoculation and was repeated twice for a total of three injections at weekly intervals.
Female BALB/C mice (in the weight range of 17–20 gr) were injected i.p. with 1*10^6 C-26 colon carcinomas.
Treatment was as performed according to the schedule described above.

In data set [5] the test system is calf thymus DNA. Nature of the data set: DNA binding (calf thymus DNA platination). The settings on record: listed as trans-[PtCl2(NH3)(pip)]. On the procedure: The formation of calf thymus DNA platination was also examined. To this end, calf thymus DNA was incubated with different compounds (Table 3) in which the following parameters were determined: […]
Data set [6] concerns Ubiquitin and Heart Myoglobin. The settings on record: 1:1 reaction, 1–2 mM, 10 mM phosphate buffer, pH 6.4, 37° C.
Method: Since most platinum(II) derivatives which are administered intravenously become protein bound within 24 hr, the binding kinetics of two model proteins, Ubiquitin (MW 8565) and Heart Myoglobin (MW 16951), to Pt complexes was determined. To this end, a 1:1 reaction between the platinum complexes and the proteins were carried out at 1–2 mM concentrations, in 10 mM phosphate buffer, pH 6.4 at 37° C. Protein binding kinetics were measured directly on the reaction mixtures, by Electrospray Ionization Mass Spectrometry (ESI-MS).

Take trans-[PtCl(PyAc—N,O)(NH3)]: the solubility in water in data set [1] is 4 to 5 mM.

Consider `C1CCN(C2CCNCC2)CC1.N.[Cl][Pt][Cl]` [Complex 3, Trans-[PtCl2(NH3)(4-piperidino-piperidine)]], for which the “decrease of EtBr fluorescence intensity by DNA adducts” value in data set [2] was “The best adduct”. Also, in data set [3], the “toxicity (animal weight and survival)” value is “non-toxic”. In data set [4], the “Increase in life span” value stood at 108% and the Survival stood at 24 ± 3 days.

Turning to `C1CCNCC1.N.[Cl][Pt][Cl]` [Complex 1, Trans-[PtCl2(NH3)(piperidine)]], in data set [5], the “% IEC/adduct, frequency of interstrand crosslinks” value stood at 26% and the “unwinding angle per adduct” value is 52.8°. Moreover, the “ΔTm, 0.01M Na+” value in data set [5] (rb = 0.05, 0.01M Na+) is “+7.6 0.C”. Besides, the “ΔTm, 0.2 M” value in data set [5] (rb = 0.05, 0.2 M) is reported as −1.9 0.C. Moreover, the “ΔΔεmax, maximum of the positive CD band at around 275 nm” value in data set [5] (rb = 0.05, difference between control and platinated DNA) turned out to be 0.15. In addition, the “binding to the proteins” value in data set [6] is reported as “binds rapidly”.
